Source: patent US9216973B2, “Insecticidal compounds” (Syngenta Participations AG, priority 2008, dated 2015)

How the values were obtained:
[1] = tested on: Thrips tabaci (Onion thrips); assay: Thrips tabaci sunflower leaf disc spray test; type: in vivo; details: for pest or weed control at 200 ppm: foliar, 168 h, 200 ppm spray on sunflower leaf discs, population of mixed ages, mortality after 7 days
Description: (§1) This Example illustrates the insecticidal and acaricidal properties of compounds of formula (I). The tests were performed as follows:
(§2) Cotton leaf discs were placed on agar in a 24-well microtiter plate and sprayed with test solutions at an application rate of 200 ppm. After drying, the leaf discs were infested with 5 L1 larvae. The samples were checked for mortality, feeding behavior, and growth regulation 3 days after treatment (DAT). The following compound gave at least 80% control of Spodoptera littoralis: A1, A2, A5, A6, A7, A8, A10, A11, A12, A13, A14, A15, A16, A17, A18, A19, A21, A22, A23, A24, A25, A30, A31, A32, A33, A34, A35, A39, A40, A41 A42, A43, A44, A45, A46, A47, A48, A49, A50, A51, A53, A54, A55, A59, A60, A61, A62. Heliothis virescens (Tobacco budworm): Eggs (0-24 h old) were placed in 24-well microtiter plate on artificial diet and treated with test solutions at an application rate of 200 ppm (concentration in well 18 ppm) by pipetting. After an incubation period of 4 days, samples were checked for egg mortality, larval mortality, and growth regulation. The following compound gave at least 80% control of Heliothis virescens: A1, A2, A3, A4, A5, A6, A7, A8, A10, A11, A12, A13, A14, A15, A16, A18, A19, A21, A22, A24, A25, A30, A31, A32, A33, A34, A35, A37, A38, A39, A40, A42, A43, A44, A45, A46, A47, A48, A49, A50, A51, A55, AA57, A58, A59, A60, A61, A62. Plutella xylostella (Diamond back moth): 24-well microtiter plate (MTP) with artificial diet was treated with test solutions at an application rate of 200 ppm (concentration in well 18 ppm) by pipetting. After drying, the MTP's were infested with L2 larvae (7-12 per well). After an incubation period of 6 days, samples were checked for larval mortality and growth regulation. The following compound gave at least 80% control of Plutella xylostella: A1, A2, A5, A6, A7, A8, A9, A10, A11, A12, A13, A14, A15, A16, A17, A18, A19, A20, A21, A22, A24, A25, A30, A31, A32, A33, A34, A35, A37, A38, A39, A40, A42, A43, A44, A45, A46, A47, A48, A49, A50, A51, A52, A53, A54, A55, A57, A58, A59, A60, A61, A62, B3. Diabrotica balteata (Corn root worm): A 24-well microtiter plate (MTP) with artificial diet was treated with test solutions at an application rate of 200 ppm (concentration in well 18 ppm) by pipetting. After drying, the MTP's were infested with L2 larvae (6-10 per well). After an incubation period of 5 days, samples were checked for larval mortality and growth regulation. The following compound gave at least 80% control of Diabrotica balteata: A1, A2, A5, A6, A7, A10, A11, A12, A13, A14, A15, A16, A17, A18, A19, A21, A22, A24, A25, A30, A31, A32, A33, A34, A35, A38, A39, A40, A42, A43, A44, A45, A46, A47, A48, A49, A50, A59, A60, A61, A62. Thrips tabaci (Onion thrips): Sunflower leaf discs were placed on agar in a 24-well microtiter plate and sprayed with test solutions at an application rate of 200 ppm. After drying, the leaf discs were infested with an […] population of mixed ages. After an incubation period of 7 days, samples were checked for mortality. The following compounds gave at least 80% control of Thrips tabaci: A1, A2, A5, A6, A7, A8, A10, A12, A13, A14, A15, A16, A17, A18, A19, A21, A24, A25, A30, A31, A32, A33, A34, A35, A39, A42, A43, A44, A45, A46, A47, A48, A49, A50, A51, A53, A54, A57, A58, A59, A60, A61, A62. Tetranychus urticae (Two-spotted spider mite): Bean leaf discs on agar in 24-well microtiter plates were sprayed with test solutions at an application rate of 200 ppm. After drying, the leaf discs are infested with mite populations of mixed ages. 8 days later, discs are checked for egg mortality, larval mortality, and adult mortality. The following compound gave at least 80% control of Tetranychus urticae: A1, A2, A4, A5, A6, A7, A8, A10, A11, A12, A13, A14, A15, A16, A17, A18, A19, A20, A21, A22, A30, A31, A32, A33, A34, A35, A39, A40, A41, A42, A43, A44, A45, A46, A47, A48, A49, A50, A51, A53, A54, A55, A57, A59, A60, A61, A62.

[2] = tested on: Tetranychus urticae (Two-spotted spider mite); assay: Tetranychus urticae bean leaf disc spray test; type: in vivo; details: for pest or weed control at 200 ppm: foliar, 192 h, 200 ppm spray on bean leaf discs, mite populations of mixed ages, egg, larval and adult mortality 8 days later, read-out: control of Tetranychus urticae
Description: as §1, §2

In the case of `Cc1cc(C2=NOC(c3cc(Cl)cc(Cl)c3)(C(F)(F)F)C2O)ccc1C(=O)NC1C[S+]([O-])C1` (centres unmarked) [A53], the pest or weed control at 200 ppm [1] is reported as ≥ 80% and the pest or weed control at 200 ppm [2] is reported as ≥ 80%.

With `Cc1cc(C2=NOC(c3cc(Cl)cc(Cl)c3)(C(F)(F)F)C2O)ccc1C(=O)NC1CSC1` (centres unmarked) [A54] the pest or weed control at 200 ppm [1] was ≥ 80% and the pest or weed control at 200 ppm [2] was ≥ 80%.

`Cc1cc(C2=NOC(c3cc(Cl)cc(Cl)c3)(C(F)(F)F)/C2=N/O)ccc1C(=O)NC1(C)CSC1` (centres unmarked) [A56] was tested, and the “effect on mortality, feeding behavior, or growth regulation” value ([1]; same protocol, 200 ppm) was “little or no effect” and the “effect on mortality, feeding behavior, or growth regulation” value ([2]; same protocol, 200 ppm) was “little or no effect”.

For `Cc1cc(C2=NOC(c3cc(Cl)cc(Cl)c3)(C(F)(F)F)C2F)ccc1C(=O)NC1CS(=O)(=O)C1` (centres unmarked) [A59], the pest or weed control at 200 ppm [1] was ≥ 80% and the pest or weed control at 200 ppm [2] was ≥ 80%.

In the case of `Cc1cc(C2=NOC(c3cc(Cl)cc(Cl)c3)(C(F)(F)F)C2F)ccc1C(=O)NC1(C)CSC1` (centres unmarked) [A60], the pest or weed control at 200 ppm [1] is reported as ≥ 80% and the pest or weed control at 200 ppm [2] is reported as ≥ 80%.

`Cc1cc(C2=NOC(c3cc(Cl)cc(Cl)c3)(C(F)(F)F)C2F)ccc1C(=O)NC1CSC1` (centres unmarked) [A61] was tested, and the pest or weed control at 200 ppm [1] was ≥ 80% and the pest or weed control at 200 ppm [2] was ≥ 80%.

`Cc1cc(C2=NOC(c3cc(Cl)cc(Cl)c3)(C(F)(F)F)C2F)ccc1C(=O)NC1C[S+]([O-])C1` (centres unmarked) [A62] was tested, and the pest or weed control at 200 ppm [1] was ≥ 80% and the pest or weed control at 200 ppm [2] was ≥ 80%.
